Source: patent US20240239804A1, “FUROINDAZOLE DERIVATIVES AS ANTAGONISTS OR INHIBITORS OF GPR84” (Bayer Aktiengesellschaft, priority 2021, published 2024)

Target: T1, human GPR84 receptor (Homo sapiens, UniProt Q9NQS5)
T1 construct: frozen aliquots prepared by acCELLerate; host or cells: CHO-K1
Experiment: cAMP HTRF assay for identification of cellular GPR84 antagonists
Format: cell-based
Conditions: CHO-K1 cells stably expressing human GPR84; Forskolin plus agonist 6-OAU; cAMP HTRF readout; average or median values
Procedure, shortened: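 CHO-K1 cells stably expressing human GPR84, preincubated with compound 30 min at room temperature, then stimulated 30 min with 6-OAU (EC80) plus forskolin (EC90). cAMP measured by HTRF 665/620 nm ratio after 60 min lysis; 11 concentrations from 20 μM to 0.07 nM in duplicate, IC50 by 4-parameter fit.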

T1 sequence (Q9NQS5 whole entry): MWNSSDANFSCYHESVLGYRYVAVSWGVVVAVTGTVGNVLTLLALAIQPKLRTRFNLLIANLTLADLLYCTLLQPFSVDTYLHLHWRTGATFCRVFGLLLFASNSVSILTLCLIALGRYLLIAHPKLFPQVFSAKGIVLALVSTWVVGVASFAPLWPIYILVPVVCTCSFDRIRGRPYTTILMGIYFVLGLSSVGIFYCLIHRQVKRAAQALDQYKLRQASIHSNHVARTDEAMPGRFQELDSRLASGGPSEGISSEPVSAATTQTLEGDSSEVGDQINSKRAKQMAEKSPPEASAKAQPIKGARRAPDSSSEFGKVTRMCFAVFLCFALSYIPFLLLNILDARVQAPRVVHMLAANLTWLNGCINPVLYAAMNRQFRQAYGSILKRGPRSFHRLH

IC50 | SMILES
≥ 20000 nM | Cc1c(C(=O)N2CCC[C@H]2C(N)=O)oc2c1-c1nn(Cc3ccc(Cl)cc3)cc1CC2 [Example 91, 1-{2-[(4-chlorophenyl)methyl]-8-methyl-4,5-dihydro-2H-furo[2,3-g]indazole-7-carbonyl}-L-prolinamide]
820 nM | Cc1c(C(=O)NCCN2CCN(C)CC2)oc2c1-c1nn(Cc3ccc(F)cc3Cl)cc1CC2 [Example 93]
280 nM | Cc1c(C(=O)NCc2ccon2)oc2c1-c1nn(Cc3ccc(F)cc3Cl)cc1CC2 [Example 94]
